# Results reported in patent US8653041B2, “Antibacterial aminoglycoside analogs” (Achaogen, Inc., priority 2010, dated 2014).
# Where two headings read alike, the source gives them in different places.
# Legend:
# Pseudomonas aeruginosa = experiment: MIC, CLSI broth microdilution, Pseudomonas aeruginosa panel; assay type: cell-based
# Method: (§1) Minimum inhibitory concentrations (MIC) were determined by reference Clinical and Laboratory Standards Institute (CLSI) broth microdilution methods per M7-A7 [2006]. Quality control ranges utilizing E. coli ATCC 25922, P. aeruginosa ATCC 27853 and S. aureus ATCC 29213, and interpretive criteria for comparator agents were as published in CLSI M100-S17 [2007]. Briefly, serial two-fold dilutions of the test compounds were prepared at 2× concentration in Mueller Hinton Broth. The compound dilutions were mixed in 96-well assay plates in a 1:1 ratio with bacterial inoculum. The inoculum was prepared by suspension of a colony from an agar plate that was prepared the previous day. Bacteria were suspended in sterile saline and added to each assay plate to obtain a final concentration of 5×10^5 CFU/mL. The plates were incubated at 35 C for 20 hours in ambient air.
# The MIC panel presented in Table 1 contains 27 isolates of Pseudomonas aeruginosa: strains 1-22 are clinical isolates from around the world collected between 2004-2007 which contain representative resistance mechanisms commonly found in Pseudomonas, such as the AAC(6′)-I, AAC(6′)-II, APH(3′)-IIb, ANT(2″)-I, and perm/efflux; strains 23-27 are susceptible.
# Acinetobacter baumannii = experiment: MIC, CLSI broth microdilution, Acinetobacter baumannii panel; assay type: cell-based; details: Acinetobacter baumannii, read-out: MIC
# Method: as §1
# The MIC panel presented in Table 2 contains 29 isolates of Acinetobacter baumannii: strains 1-24 are clinical isolates from around the world collected between 2004-2007 which contain representative resistance mechanisms commonly found in Acinetobacter baumannii, such as AAC(3)-I and II, AAC(6′)-I, ANT(2″)-I, APH(3′)-VI, and perm/efflux; strains 25-29 are susceptible.
compound,measurement,setting,value
"NCC[C@H](O)C(=O)N[C@@H]1C[C@H](N)[C@@H](O[C@H]2O[C@H](CN)[C@@H](O)[C@H](O)[C@H]2O)[C@H](O)[C@H]1O[C@H]1O[C@H](CO)[C@@H](O)[C@H](N)[C@H]1O [AMK, amikacin]",MIC,"Pseudomonas aeruginosa; Pseudomonas aeruginosa, P. aeruginosa clinical strain 1 (resistant clinical isolate), read-out: MIC",≥ 32 µg/mL
same,MIC,"Pseudomonas aeruginosa; Pseudomonas aeruginosa, P. aeruginosa clinical strain 2 (resistant clinical isolate), read-out: MIC",≥ 32 µg/mL
same,MIC,"Pseudomonas aeruginosa; Pseudomonas aeruginosa, P. aeruginosa clinical strain 3 (resistant clinical isolate), read-out: MIC",≥ 32 µg/mL
same,MIC,"Pseudomonas aeruginosa; Pseudomonas aeruginosa, P. aeruginosa clinical strain 4 (resistant clinical isolate), read-out: MIC",≥ 32 µg/mL
same,MIC,"Pseudomonas aeruginosa; Pseudomonas aeruginosa, P. aeruginosa clinical strain 5 (resistant clinical isolate), read-out: MIC",≥ 32 µg/mL
same,MIC,"Pseudomonas aeruginosa; Pseudomonas aeruginosa, P. aeruginosa clinical strain 6 (resistant clinical isolate), read-out: MIC",8 to 16 µg/mL
same,MIC,"Pseudomonas aeruginosa; Pseudomonas aeruginosa, P. aeruginosa clinical strain 7 (resistant clinical isolate), read-out: MIC",1 to 8 µg/mL
same,MIC,"Pseudomonas aeruginosa; Pseudomonas aeruginosa, P. aeruginosa clinical strain 8 (resistant clinical isolate), read-out: MIC",16 to 32 µg/mL
same,MIC,"Pseudomonas aeruginosa; Pseudomonas aeruginosa, P. aeruginosa clinical strain 9 (resistant clinical isolate), read-out: MIC",8 to 16 µg/mL
same,MIC,"Pseudomonas aeruginosa; Pseudomonas aeruginosa, P. aeruginosa clinical strain 10 (resistant clinical isolate), read-out: MIC",16 to 32 µg/mL
same,MIC,"Pseudomonas aeruginosa; Pseudomonas aeruginosa, P. aeruginosa clinical strain 11 (resistant clinical isolate), read-out: MIC",≤ 1 µg/mL
same,MIC,"Pseudomonas aeruginosa; Pseudomonas aeruginosa, P. aeruginosa clinical strain 12 (resistant clinical isolate), read-out: MIC",≤ 1 µg/mL
same,MIC,"Pseudomonas aeruginosa; Pseudomonas aeruginosa, P. aeruginosa clinical strain 13 (resistant clinical isolate), read-out: MIC",1 to 8 µg/mL
same,MIC,"Pseudomonas aeruginosa; Pseudomonas aeruginosa, P. aeruginosa clinical strain 14 (resistant clinical isolate), read-out: MIC",1 to 8 µg/mL
same,MIC,"Pseudomonas aeruginosa; Pseudomonas aeruginosa, P. aeruginosa clinical strain 15 (resistant clinical isolate), read-out: MIC",8 to 16 µg/mL
same,MIC,"Pseudomonas aeruginosa; Pseudomonas aeruginosa, P. aeruginosa clinical strain 16 (resistant clinical isolate), read-out: MIC",≥ 32 µg/mL
same,MIC,"Pseudomonas aeruginosa; Pseudomonas aeruginosa, P. aeruginosa clinical strain 17 (resistant clinical isolate), read-out: MIC",≥ 32 µg/mL
same,MIC,"Pseudomonas aeruginosa; Pseudomonas aeruginosa, P. aeruginosa clinical strain 18 (resistant clinical isolate), read-out: MIC",≥ 32 µg/mL
same,MIC,"Pseudomonas aeruginosa; Pseudomonas aeruginosa, P. aeruginosa clinical strain 19 (resistant clinical isolate), read-out: MIC",≥ 32 µg/mL
same,MIC,"Pseudomonas aeruginosa; Pseudomonas aeruginosa, P. aeruginosa clinical strain 20 (resistant clinical isolate), read-out: MIC",≥ 32 µg/mL
same,MIC,"Pseudomonas aeruginosa; Pseudomonas aeruginosa, P. aeruginosa clinical strain 21 (resistant clinical isolate), read-out: MIC",16 to 32 µg/mL
same,MIC,"Pseudomonas aeruginosa; Pseudomonas aeruginosa, P. aeruginosa clinical strain 22 (resistant clinical isolate), read-out: MIC",16 to 32 µg/mL
same,MIC,"Pseudomonas aeruginosa; Pseudomonas aeruginosa, P. aeruginosa strain 23 (susceptible), read-out: MIC",1 to 8 µg/mL
same,MIC,"Pseudomonas aeruginosa; Pseudomonas aeruginosa, P. aeruginosa strain 24 (susceptible), read-out: MIC",1 to 8 µg/mL
same,MIC,"Pseudomonas aeruginosa; Pseudomonas aeruginosa, P. aeruginosa strain 25 (susceptible), read-out: MIC",1 to 8 µg/mL
same,MIC,"Pseudomonas aeruginosa; Pseudomonas aeruginosa, P. aeruginosa strain 26 (susceptible), read-out: MIC",1 to 8 µg/mL
same,MIC,"Pseudomonas aeruginosa; Pseudomonas aeruginosa, P. aeruginosa strain 27 (susceptible), read-out: MIC",≤ 1 µg/mL
same,MIC,Acinetobacter baumannii; A. baumannii clinical strain 1 (resistant clinical isolate),≥ 32 µg/mL
same,MIC,Acinetobacter baumannii; A. baumannii clinical strain 2 (resistant clinical isolate),≥ 32 µg/mL
same,MIC,Acinetobacter baumannii; A. baumannii clinical strain 3 (resistant clinical isolate),8 to 16 µg/mL
same,MIC,Acinetobacter baumannii; A. baumannii clinical strain 4 (resistant clinical isolate),16 to 32 µg/mL
same,MIC,Acinetobacter baumannii; A. baumannii clinical strain 5 (resistant clinical isolate),≥ 32 µg/mL
same,MIC,Acinetobacter baumannii; A. baumannii clinical strain 6 (resistant clinical isolate),≥ 32 µg/mL
same,MIC,Acinetobacter baumannii; A. baumannii clinical strain 7 (resistant clinical isolate),≥ 32 µg/mL
same,MIC,Acinetobacter baumannii; A. baumannii clinical strain 8 (resistant clinical isolate),≥ 32 µg/mL
same,MIC,Acinetobacter baumannii; A. baumannii clinical strain 9 (resistant clinical isolate),1 to 8 µg/mL
same,MIC,Acinetobacter baumannii; A. baumannii clinical strain 10 (resistant clinical isolate),1 to 8 µg/mL
same,MIC,Acinetobacter baumannii; A. baumannii clinical strain 11 (resistant clinical isolate),≥ 32 µg/mL
same,MIC,Acinetobacter baumannii; A. baumannii clinical strain 12 (resistant clinical isolate),≥ 32 µg/mL
same,MIC,Acinetobacter baumannii; A. baumannii clinical strain 13 (resistant clinical isolate),≥ 32 µg/mL
same,MIC,Acinetobacter baumannii; A. baumannii clinical strain 14 (resistant clinical isolate),≥ 32 µg/mL
same,MIC,Acinetobacter baumannii; A. baumannii clinical strain 15 (resistant clinical isolate),≥ 32 µg/mL
same,MIC,Acinetobacter baumannii; A. baumannii clinical strain 16 (resistant clinical isolate),≥ 32 µg/mL
same,MIC,Acinetobacter baumannii; A. baumannii clinical strain 17 (resistant clinical isolate),≥ 32 µg/mL
same,MIC,Acinetobacter baumannii; A. baumannii clinical strain 18 (resistant clinical isolate),≥ 32 µg/mL
same,MIC,Acinetobacter baumannii; A. baumannii clinical strain 19 (resistant clinical isolate),1 to 8 µg/mL
same,MIC,Acinetobacter baumannii; A. baumannii clinical strain 20 (resistant clinical isolate),1 to 8 µg/mL
same,MIC,Acinetobacter baumannii; A. baumannii clinical strain 21 (resistant clinical isolate),≥ 32 µg/mL
same,MIC,Acinetobacter baumannii; A. baumannii clinical strain 22 (resistant clinical isolate),≥ 32 µg/mL
same,MIC,Acinetobacter baumannii; A. baumannii clinical strain 23 (resistant clinical isolate),≥ 32 µg/mL
same,MIC,Acinetobacter baumannii; A. baumannii clinical strain 24 (resistant clinical isolate),≥ 32 µg/mL
same,MIC,Acinetobacter baumannii; A. baumannii strain 25 (susceptible),≤ 1 µg/mL
same,MIC,Acinetobacter baumannii; A. baumannii strain 26 (susceptible),1 to 8 µg/mL
same,MIC,Acinetobacter baumannii; A. baumannii strain 27 (susceptible),1 to 8 µg/mL
same,MIC,Acinetobacter baumannii; A. baumannii strain 28 (susceptible),1 to 8 µg/mL
same,MIC,Acinetobacter baumannii; A. baumannii strain 29 (susceptible),≤ 1 µg/mL
"NC[C@@H]1O[C@H](O[C@H]2[C@@H](O)[C@H](O[C@@H]3[C@@H](O)[C@H](N)C[C@H](N)[C@H]3O[C@H]3O[C@H](CN)[C@@H](O)[C@H](O)[C@H]3N)O[C@@H]2CO)[C@H](N)[C@@H](O)[C@@H]1O [Neo B, neomycin B]",MIC,Pseudomonas aeruginosa; P. aeruginosa clinical strain 1 (resistant clinical isolate),E (MIC's greater than or equal to 32.0 μg/mL = E)
same,MIC,Pseudomonas aeruginosa; P. aeruginosa clinical strain 2 (resistant clinical isolate),D (MIC's greater than or equal to 16.0 μg/mL and lower than 32 μg/mL = D)
same,MIC,Pseudomonas aeruginosa; P. aeruginosa clinical strain 3 (resistant clinical isolate),E (MIC's greater than or equal to 32.0 μg/mL = E)
same,MIC,Pseudomonas aeruginosa; P. aeruginosa clinical strain 4 (resistant clinical isolate),E (MIC's greater than or equal to 32.0 μg/mL = E)
same,MIC,Pseudomonas aeruginosa; P. aeruginosa clinical strain 5 (resistant clinical isolate),E (MIC's greater than or equal to 32.0 μg/mL = E)
same,MIC,Pseudomonas aeruginosa; P. aeruginosa clinical strain 6 (resistant clinical isolate),D (MIC's greater than or equal to 16.0 μg/mL and lower than 32 μg/mL = D)
same,MIC,Pseudomonas aeruginosa; P. aeruginosa clinical strain 7 (resistant clinical isolate),C (MIC's greater than or equal to 8 μg/mL and lower than 16.0 μg/mL = C)
same,MIC,Pseudomonas aeruginosa; P. aeruginosa clinical strain 8 (resistant clinical isolate),E (MIC's greater than or equal to 32.0 μg/mL = E)
same,MIC,Pseudomonas aeruginosa; P. aeruginosa clinical strain 9 (resistant clinical isolate),D (MIC's greater than or equal to 16.0 μg/mL and lower than 32 μg/mL = D)
same,MIC,Pseudomonas aeruginosa; P. aeruginosa clinical strain 10 (resistant clinical isolate),E (MIC's greater than or equal to 32.0 μg/mL = E)
same,MIC,Pseudomonas aeruginosa; P. aeruginosa clinical strain 11 (resistant clinical isolate),B (MIC's of greater than 1.0 μg/mL and lower than 8 μg/mL = B)
same,MIC,Pseudomonas aeruginosa; P. aeruginosa clinical strain 12 (resistant clinical isolate),E (MIC's greater than or equal to 32.0 μg/mL = E)
same,MIC,Pseudomonas aeruginosa; P. aeruginosa clinical strain 13 (resistant clinical isolate),E (MIC's greater than or equal to 32.0 μg/mL = E)
same,MIC,Pseudomonas aeruginosa; P. aeruginosa clinical strain 14 (resistant clinical isolate),E (MIC's greater than or equal to 32.0 μg/mL = E)
same,MIC,Pseudomonas aeruginosa; P. aeruginosa clinical strain 15 (resistant clinical isolate),E (MIC's greater than or equal to 32.0 μg/mL = E)
same,MIC,Pseudomonas aeruginosa; P. aeruginosa clinical strain 16 (resistant clinical isolate),E (MIC's greater than or equal to 32.0 μg/mL = E)
same,MIC,Pseudomonas aeruginosa; P. aeruginosa clinical strain 17 (resistant clinical isolate),C (MIC's greater than or equal to 8 μg/mL and lower than 16.0 μg/mL = C)
same,MIC,Pseudomonas aeruginosa; P. aeruginosa clinical strain 18 (resistant clinical isolate),E (MIC's greater than or equal to 32.0 μg/mL = E)
same,MIC,Pseudomonas aeruginosa; P. aeruginosa clinical strain 19 (resistant clinical isolate),E (MIC's greater than or equal to 32.0 μg/mL = E)
same,MIC,Pseudomonas aeruginosa; P. aeruginosa clinical strain 20 (resistant clinical isolate),E (MIC's greater than or equal to 32.0 μg/mL = E)
same,MIC,Pseudomonas aeruginosa; P. aeruginosa clinical strain 21 (resistant clinical isolate),E (MIC's greater than or equal to 32.0 μg/mL = E)
same,MIC,Pseudomonas aeruginosa; P. aeruginosa clinical strain 22 (resistant clinical isolate),E (MIC's greater than or equal to 32.0 μg/mL = E)
same,MIC,Pseudomonas aeruginosa; P. aeruginosa strain 23 (susceptible),B (MIC's of greater than 1.0 μg/mL and lower than 8 μg/mL = B)
same,MIC,Pseudomonas aeruginosa; P. aeruginosa strain 24 (susceptible),B (MIC's of greater than 1.0 μg/mL and lower than 8 μg/mL = B)
same,MIC,Pseudomonas aeruginosa; P. aeruginosa strain 25 (susceptible),B (MIC's of greater than 1.0 μg/mL and lower than 8 μg/mL = B)
same,MIC,Pseudomonas aeruginosa; P. aeruginosa strain 26 (susceptible),C (MIC's greater than or equal to 8 μg/mL and lower than 16.0 μg/mL = C)
same,MIC,Pseudomonas aeruginosa; P. aeruginosa strain 27 (susceptible),B (MIC's of greater than 1.0 μg/mL and lower than 8 μg/mL = B)
